The values that follow come from BindingDB's records for doi:10.1016/j.bmcl.2013.01.017 (Vanderbilt University Medical Center, 2013).

The target in the test is T1, Muscarinic acetylcholine receptor M1 (Homo sapiens, UniProt P11229).
T1 sequence (P11229 whole entry): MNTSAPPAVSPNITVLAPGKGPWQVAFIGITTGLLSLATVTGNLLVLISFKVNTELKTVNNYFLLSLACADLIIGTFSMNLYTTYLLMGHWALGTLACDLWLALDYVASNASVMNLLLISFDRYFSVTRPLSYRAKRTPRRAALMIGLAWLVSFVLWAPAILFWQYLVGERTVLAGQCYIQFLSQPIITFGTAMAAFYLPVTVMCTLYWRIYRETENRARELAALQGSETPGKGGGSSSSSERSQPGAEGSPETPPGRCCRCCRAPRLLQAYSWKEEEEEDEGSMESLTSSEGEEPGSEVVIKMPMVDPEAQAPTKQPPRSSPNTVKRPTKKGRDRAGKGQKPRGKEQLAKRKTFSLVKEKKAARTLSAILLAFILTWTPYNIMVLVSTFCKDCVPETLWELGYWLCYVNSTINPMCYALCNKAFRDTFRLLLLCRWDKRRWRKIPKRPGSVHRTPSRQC
In words: Positive allosteric modulation of human muscarinic M1 receptor.

Some results are limits rather than exact numbers.

`Cn1cc(-c2ccc(CN3C(=O)C4(CCN(C5CCCC5)C4)c4ccccc43)c(F)c2)cn1` (stereo unspecified) showed an EC50 greater than 10 µM.
